According to patent publication US20240156764A1, “INHIBITION OF URACIL DNA GLYCOSYLASE IN THE OPEN CONFORMATION” (CASE WESTERN RESERVE UNIVERSITY, priority 2022, published 2024):

Columns and labels:
[1] = biological target: T1, human UDG (Homo sapiens, UniProt P13051); test: High-throughput screening assay: UDG-mediated unquenching of fluorescent uracil DNA hairpin; assay type: biochemical; design: 6xHis; purchased XTAL Biostructures; host or cells: Sf9 insect cells; conditions: purified human UDG, initial value, read-out: IC50 for the purified human UDG (un-quenching of fluorescence from the DNA hairpin)
Protocol: FIGS. 1(A-D) illustrate high-Throughput Small-Molecule Screening for UDG Inhibitors. A: 60 min reaction time-course experiment was performed to measure human UDG enzymatic activity in the presence of 10 nM UDG (red line) or absence of UDG (black line) uracil DNA hairpin (25 nM) only control. Each data point is the average of 12 reaction replicates from a 384-well plate. Error bars represent the standard deviation from the mean. B: Two independent screens using a plate of 320 compounds were plotted on the same graph with the trend line showing a positive correlation between the two runs with an R2 value of 0.711 using y=mx+b. […] Normalized percent activity of UDG-mediated unquenching of fluorescence DNA hairpin is shown. […] Control condition denotes RFU-UDG AVG (DNA alone no protein); the average relative fluorescence unit (RFU) value was computed using a set of 32 replicate wells per screening plate. […]
The collection of biologically active molecules was compiled from the LOPAC library (Sigma Aldrich) and Bioactive Compound Library (Selleck Chemicals). […] After 40 min of incubation at room temperature (˜23° C.), fluorescence measurements were done using an Enspire plate reader (Perkin Elmer) at an excitation wavelength of 485 nm and emission wavelength of 520 nm. Compound performance from per plate was calculated and normalized accounting for background fluorescence by the following equation: […]
Target sequence in this assay (P13051 1-304 isoform P13051-2): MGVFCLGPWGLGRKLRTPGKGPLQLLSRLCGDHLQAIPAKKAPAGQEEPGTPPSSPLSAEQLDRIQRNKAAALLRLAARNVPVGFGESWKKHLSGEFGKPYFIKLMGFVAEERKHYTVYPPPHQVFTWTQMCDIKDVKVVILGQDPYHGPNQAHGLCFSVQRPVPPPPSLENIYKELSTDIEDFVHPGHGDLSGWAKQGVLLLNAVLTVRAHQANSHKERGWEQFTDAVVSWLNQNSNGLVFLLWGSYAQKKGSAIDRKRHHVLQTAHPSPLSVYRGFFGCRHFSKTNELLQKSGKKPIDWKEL

[2] = biological target: T1, human UDG; test: UDG protein thermal shift with Sypro orange dye; assay type: binding; conditions: 100 μM ATA
Protocol: The data for thermophoresis was recorded at 20° C. using the blue LED at 20% and IR-Laser at 40%. The isotherm derived from the raw data and fitted according to the law of mass action. […] Then 2 μL of 10× Sypro dye and 2 μL of ddH20 (Applied biosystems cat #4461141) were added. Monitoring of fluorescence took place for 2 hr (Bioraid CFX96, Hex filter, 25-97° C., 1.6° C./2 min). Negative (−) derivative RFU raw data and plots from the machine were obtained and analyzed. […] Melting temperature (Tm) value was taken directly from the midpoint on the −dRFU/dt vs. temperature graph. Each point on the graph represents an average of three data sets. Y error bars represent the standard deviation.
FIGS. 10(A-D) illustrate UDG thermal shift. A: Uracil DNA hairpin stabilizes UDG protein. […] Melting temperature (Tm) values were taken directly from lowest peak point on the negative dRFU/dt over temperature plots. B: (with uracil DNA): Parallel set of wells on the same plate included uracil-DNA harpin (final […]). Each plate was incubated 60 min at room temperature before the monitoring of fluorescence took place about 2 hr (Biorad CFX96, Hex filter, 25° C.-97C, 1.6° C./2 min). […] Each plate was incubated 60 min at room temperature before the monitoring of fluorescence took place about 2 hr (Biorad CFX96, Hex filter, 25° C.-97° C., increment of 1.6° C./2 min). […]
Target sequence in this assay (P13051 94-313 limits assumed): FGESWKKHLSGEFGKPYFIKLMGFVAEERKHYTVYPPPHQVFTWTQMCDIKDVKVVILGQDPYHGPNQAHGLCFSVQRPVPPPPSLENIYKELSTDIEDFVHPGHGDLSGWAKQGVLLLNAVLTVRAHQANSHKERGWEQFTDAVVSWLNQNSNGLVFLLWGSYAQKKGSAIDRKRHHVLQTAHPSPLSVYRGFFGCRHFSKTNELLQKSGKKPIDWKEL

Structure (SMILES): O=C(O)C1=CC(=C(c2ccc(O)c(C(=O)O)c2)c2ccc(O)c(C(=O)O)c2)C=CC1=O [ATA, aurintricarboxylic acid]
- IC50 [1]: 40 nM
- average maximum Tm change for UDG ([2]; absence of uracil containing DNA): ~3.0 °C
- change of Tm of UDG protein ([2]; with 1.0 mM uracil DNA hairpin): did not further change the Tm
